Assay results from patent US20070248997A1, “METHOD OF USING ONE-D[…] MULTI-D[…] MAGNETIC RESONANCE TO IDENTIFY COMPOUNDS THAT INTERACT WITH TARGET BIOMOLECULES” (Smithkline Beecham Corporation, priority 1999, published 2007).

Target: Ni^2+ form of Peptide Deformylase (S. Aureus) (Staphylococcus aureus, UniProt P68826)
Assay: Deformylation of For-Met-Ala-Ser-OH by Ni-PDF monitored by 1H NMR over incubation times
Type: biochemical
Details: for interaction constant α between I1 and I2: 0.4 mM 8-hydroxyquinoline (I1) + 0.15 mM N-Nitro-N′-(N-phenylamino)guanidine (I2); for interaction constant α between I1 and I2 / Ki: 2.5 mM substrate, 1 uM enzyme, assuming a KM of 2.5 mM, FIG. 4; for Ki: from slopes of formate buildup, read-out: KEI (constant of inhibition)
Procedure: FIG. 1 depicts the deformylation of For-Met-Ala-Ser-OH catalyzed by the Ni^2+ form of Peptide Deformylase (S. Aureus) (herein also referred to as “PDF”) over a range of incubation times, as monitored by 1H nuclear magnetic resonance spectroscopy.
FIG. 4 depicts the deformylation of For-Met-Ala-Ser-OH catalyzed by the Ni^2+ form of Peptide Deformylase (S.Aureus) over a range of incubation times, as monitored by 1H nuclear magnetic resonance spectroscopy of the buildup of the formate (For) moiety. Four slopes are illustrated in this figure, the first one (∘) is a “control” experiment using 2.5 mM of substrate (For-Met-Ala-Ser-OH) and 1 uM of enzyme. […] The third slope (∇) contains 0.15 mM of N-Nitro-N′-(N-phenylamino)guanidine (I2) in the presence of 2.5 mM of substrate and 1 uM of enzyme. Finally the fourth slope (⋄) contains both I1 and I2 at 0.4 mM and 0.15 mM, respectively, in the presence of 2.5 mM of substrate and 1 uM of enzyme. Calculating the four slopes and using the steady-state rate equations for this system, it is straightforward to calculate the KEI1, KEI2, and α value.

Sequence of Ni^2+ form of Peptide Deformylase (S. Aureus) (P68826 whole entry): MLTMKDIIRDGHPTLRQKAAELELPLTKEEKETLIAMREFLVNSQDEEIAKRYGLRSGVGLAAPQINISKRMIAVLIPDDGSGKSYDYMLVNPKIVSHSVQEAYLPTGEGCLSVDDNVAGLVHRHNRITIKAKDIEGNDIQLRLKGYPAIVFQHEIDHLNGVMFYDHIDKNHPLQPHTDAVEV

| Structure (SMILES) | interaction constant α between I1 and I2 | Ki | deformylation of For-Met-Ala-Ser-OH (rate at which product resonance peak increases) (8-hydroxyquinoline added to substrate + Ni-PDF mixture, FIG. 1) |
| --- | --- | --- | --- |
| Oc1cccc2cccnc12 [8-hydroxyquinoline] | 0.72 | 335 µM | slightly inhibited |
| N=C(NNc1ccccc1)N[N+](=O)[O-] [N-Nitro-N′-(N-phenylamino)guanidine] | 0.72 | 151 µM |  |
